Laboratory results from EP0098577A2, “Drugs for treating diarrhea caused by infection” (HOECHST AKTIENGESELLSCHAFT, priority 1982, dated 1984).
Where two headings read alike, the source gives them in different places.

Columns and labels:
Assay in all cases: in vitro checkerboard method (Schachbrettmethode): MHK and FIC-Index
Assay type in all cases: cell-based
[1] = test system: Pseud. aeruginosa ATCC 9027; details: Pseudomonas aeruginosa, ATCC9027, in vitro, single substance
Excerpt: (§1) Zur Untersuchung der erfindungsgemäßen Kombination wurden mit typischen Vertretern der grampositiven und gramnegativen Keimgruppen in vitro Versuche durchgeführt. Mit der für Kombinationsversuche üblichen Methode, der sogenannten "Schachbrettmethode" (vgl. "Antibiotics in Laboratory Medicine", Editor Lorian, Baltimore London 1980, Seiten 300-309), wurden sowohl die minimalen Hemmkonzentrationen (MHK) als auch die Hemmgrenzen in den einzelnen Kombinationen bestimmt. Das Endergebnis wurde als FIC-Index (Fractional Inhibitory Concentration Index) ausgedrückt. Der FIC-Index berechnet sich nach folgender Formel: [formula]
(§2) Hierbei ist A bzw. B die niedrigste Konzentration der Verbindungen A bzw. B, die in Kombination mit der Verbindung B bzw. A eine Hemmwirkung zeigt. Dieser Wert wird durch die MHK der Verbindung A bzw. B dividiert. Der so erhaltene FIC-Index gibt Aufschluß über die Interaktionen von zwei Verbindungen in ihrer antibakteriellen Wirkung. FIC-Index-Zahlen, die kleiner als 1 sind, drücken eine synergistische Wirkung aus. Die mit dieser Methode ermittelten Resultate sind in den nachstehenden Tabellen zusammengestellt.
(§3) In den nachstehenden Tabellen sind in den ersten beiden Spalten die minimalen Hemmkonzentrationen der geprüften Verbindungen in Mikrogramm pro Milliliter aufgeführt. In einigen Fällen sind abweichende Konzentrationseinheiten angegeben, z.B. Nanogramm [ng] oder Milligramm [mg] pro Milliliter. Wenn ein FIC-Index nicht angegeben wurde, so bedeutet dies, daß aufgrund der Unwirksamkeit des einen Wirkstoffes keine Grenze zu ermitteln war.

[2] = test system: Klebsiella pneumoniae A 9977
Excerpt: as §1, §2, §3

Proteus rettgeri 936 = details: single substance; for MIC: Providencia rettgeri, 936, in vitro
Excerpt: as §1, §2, §3

Staph. aureus SG 511 = details: Staphylococcus aureus, SG511, single substance
Excerpt: as §1, §2, §3

Hafnia alvei ATCC 11604 = test system: Hafnia alvei ATCC 11604
Excerpt: as §1, §2, §3

E. coli 0 55 = details: single substance; for MIC: Escherichia coli, 055, in vitro
Excerpt: as §1, §2, §3

Salmonella typhimurium = details: for MIC: Salmonella enterica, TYPHIMURIUM, read-out: MHK
Excerpt: as §1, §2, §3

[3] = test system: Serratia marcescens A 20019; details: single substance; for MIC: Serratia marcescens, A20019, in vitro
Excerpt: as §1, §2, §3

[4] = test system: Micrococcus luteus ATCC 9341
Excerpt: as §1, §2, §3

Salmonella oranienburg = details: Salmonella enterica, single substance
Excerpt: as §1, §2, §3

[5] = test system: Pseud. aeruginosa NCTC 10701; details: Pseudomonas aeruginosa, NCTC10701, in vitro, single substance
Excerpt: as §1, §2, §3

Salmonella paratyphi A = details: Salmonella enterica, read-out: MHK
Excerpt: as §1, §2, §3

E. coli TEM = details: Escherichia coli, read-out: MHK
Excerpt: as §1, §2, §3

Strept. faecium D = details: Enterococcus faecium, single substance
Excerpt: as §1, §2, §3

[6] = test system: Serratia marcescens A 20460; details: for MIC: Serratia marcescens
Excerpt: as §1, §2, §3

Pseud. aeruginosa 1771 m = details: single substance; for MIC: Pseudomonas aeruginosa, 1771M
Excerpt: as §1, §2, §3

Strept. pyogenes A 77 = details: Streptococcus pyogenes, A77, single substance
Excerpt: as §1, §2, §3

Enterobacter cloacae = details: read-out: MHK
Excerpt: as §1, §2, §3

[7] = test system: Bacillus subtilis ATCC 6633
Excerpt: as §1, §2, §3

E. coli 0 86 = details: Escherichia coli, 086, single substance, ng per millilitre (b7)
Excerpt: as §1, §2, §3

[8] = in vitro, single substance, Salmonella typhimurium
[9] = ATCC9341, in vitro, single substance, Micrococcus luteus ATCC 9341, read-out: MHK

SMILES	MIC [1] [µg/mL]	MIC (Staph. aureus SG 511) [µg/mL]	MIC [4, 9] [µg/mL]	MIC [5] [µg/mL]	MIC (Salmonella paratyphi A) [µg/mL]	MIC (E. coli TEM) [µg/mL]	MIC (Strept. faecium D) [µg/mL]	MIC (Pseud. aeruginosa 1771 m) [µg/mL]	MIC (Strept. pyogenes A 77; mg per millilitre (b7)) [µg/mL]	MIC (Proteus rettgeri 936; ng per millilitre (b7)) [µg/mL]	MIC (E. coli 0 86) [µg/mL]	MIC (Salmonella oranienburg; ng per millilitre (b7)) [µg/mL]	MIC (Strept. pyogenes A 77) [µg/mL]	other results
CCOc1ccc2nc3cc(N)ccc3c(N)c2c1 [EAL, Ethacridinlactat]	12.5	6.25	6.25	12.5	12.5	12.5	12.5	31.2	–	–	–	–	–	MIC ([2]; A9977, in vitro, single substance, Klebsiella pneumoniae A 9977, read-out: MHK): 125 µg/mL; MIC (Proteus rettgeri 936): 31.2 µg/mL; MHK (Proteus rettgeri 936; in vitro): 62,5 µg/ml; MIC (Hafnia alvei ATCC 11604; ATCC11604, in vitro, single substance, Hafnia alvei ATCC 11604, read-out: MHK): 62.5 µg/mL; MIC (E. coli 0 55): 6.25 µg/mL; MHK (E. coli 0 55; in vitro): 12,5 µg/ml; MIC (Salmonella typhimurium; [8]): 25 µg/mL; MHK (Salmonella typhimurium; [8]): 50,0 µg/ml; MIC ([3]; mg per millilitre (b7)): 1000 µg/mL; MHK ([3]; in vitro, mg per millilitre (b7)): >1,0 mg; MIC (Salmonella oranienburg): 62.5 µg/mL; MIC ([6]; A20460, in vitro, single substance, Serratia marcescens A 20460, mg per millilitre (b7), read-out: MHK): > 1000 µg/mL; MHK ([6]; in vitro, single substance, Serratia marcescens A 20460, mg per millilitre (b7)): 1,0 mg; MHK (Pseud. aeruginosa 1771 m): 62,5 µg/ml
COn1cc(C(=O)O)c(=O)c2cc3c(cc21)OCO3 [Miloxacin]	25	6.25	–	31.2	–	–	–	50	> 1000	–	–	–	–	MIC ([4]; ATCC9341, in vitro, single substance, Micrococcus luteus ATCC 9341, mg per millilitre (b7), read-out: MHK): > 1000 µg/mL; MIC (Strept. faecium D; mg per millilitre (b7)): > 1000 µg/mL; MIC (Enterobacter cloacae; in vitro, single substance): 2.5 µg/mL
CCn1cc(C(=O)O)c(=O)c2ccc(C)nc21 [Nalidixinsäure]	500	50	–	250	–	–	500	100	> 1000	–	–	–	–	MIC ([2]; Klebsiella pneumoniae, A9977, read-out: MHK): 6.25 µg/mL; MIC ([7]; Bacillus subtilis, ATCC6633, read-out: MHK): 6.25 µg/mL; MIC ([4]; Micrococcus luteus, ATCC9341, read-out: MHK): > 1000 µg/mL; MIC ([6]; A20460, read-out: MHK): 6.25 µg/mL; MIC (Enterobacter cloacae): 6.25 µg/mL
CCn1cc(C(=O)O)c(=O)c2cc(F)c(N3CCNCC3)cc21 [Norfloxacin]	–	–	12.5	–	0.0195	0.0391	1.25	–	–	0.0781	0.0391	0.0781	2.5	MIC (Hafnia alvei ATCC 11604; Hafnia alvei, ATCC11604, read-out: MHK): 0.0195 µg/mL; MIC (E. coli 0 55; ng per millilitre (b7)): 0.0391 µg/mL; MIC (Salmonella typhimurium): 0.0195 µg/mL; MIC ([3]; ng per millilitre (b7)): 0.0781 µg/mL
CCn1cc(C(=O)O)c(=O)c2cc3occc3nc21 [OFNC, 5-Äthyl-5,8-dihydro-8-oxofuran(3,2-b)(1,8)-naphthyridin-7-carbonsäure]	–	–	31.2	–	0.0391	–	31.2	–	–	0.0312	0.0625	0.0781	125	MIC ([2]; A9977, in vitro, single substance, Klebsiella pneumoniae A 9977, ng per millilitre (b7), read-out: MHK): 0.0781 µg/mL; MIC ([7]; ATCC6633, in vitro, single substance, Bacillus subtilis ATCC 6633, ng per millilitre (b7), read-out: MHK): 0.0488 µg/mL; MIC (Hafnia alvei ATCC 11604; ATCC11604, in vitro, single substance, Hafnia alvei ATCC 11604, ng per millilitre (b7), read-out: MHK): 0.0391 µg/mL; MIC (Salmonella typhimurium; in vitro, single substance, Salmonella typhimurium, ng per millilitre (b7)): 0.0781 µg/mL
